Here are results for 21 molecules from patent US12496350B2 (Ohio State Innovation Foundation, priority 2018, dated 2025).

Where a SMILES comes first, the peptide text is derived from it. Where no end group is shown, it is not given here. [ ]: non-standard residue; d: D form. The star is where a group is joined. X2 = O=C(O)c1cc(C(=O)*)ccc1-c1c2ccc(=O)cc-2oc2cc(O)ccc12; X1 = O=C(O)c1cc(NC(=S)*)ccc1C1c2ccc(O)cc2Oc2cc(O)ccc21; X3 = O=C(O)c1cc(C(=O)*)ccc1C1c2ccc(O)cc2Oc2cc(O)ccc21; 1Nal = N[C@@H](Cc1cccc2ccccc12)C(=O)O; 2Nal = N[C@@H](Cc1ccc2ccccc2c1)C(=O)O; Bta = N[C@@H](Cc1csc2ccccc12)C(=O)O; Pen = CC(C)(S)[C@H](N)C(=O)O; Tle = CC(C)(C)[C@H](N)C(=O)O; AEEA = NCCOCCOCC(=O)O

For one assay, the target named is T1, CAL PDZ domain (CALP5-His) (Homo sapiens, UniProt Q9HD26).
T1 construct: His
As to the kind of experiment: Direct fluorescence polarization binding of labeled peptide, Condition C.
Conditions: not given
The procedure: Condition C (denoted with superscript ^C): 50 nM labeled peptide was incubated with 2 mM TCEP in PBS at pH 7.4 containing 0.01% Triton-X100. CALP5-His was serially diluted in PBS containing 0.01% Triton-X100 to which was then added the peptide and TCEP solution. This solution was mixed for 1 h at RT then 20 uL was pipetted into 384-well microplates and fluorescence polarization was measured using a TECAN Infinite M1000 plate reader. KD values were calculated using KaleidaGraph v. 3.6 using the equation: […]
Binding Affinity and Selectivity. The potency and selectivity of inhibitor 29 was first assessed by comparing its binding affinity to the four PDZ domains of CAL, NHERF1, and NHERF2, which are involved in the trafficking of CFTR to and from the plasma membrane. Peptides were labeled with FITC at the N-terminus through a miniPEG linker and tested for binding to various PDZ domains by fluorescence polarization (FP). FITC-labeled peptide (50 nM) was incubated with varying concentrations of PDZ domain in PBS (pH 7.4) containing 0.01% Triton X-100 and 2 mM TCEP for 1 h at room temperature. After 1 h, 20 μL of each sample was pipetted into 384-well black-on-black microplates and fluorescence polarization was measured by using a TECAN Infinite M1000 plate reader. Data was processed using GraphPad PRISM ver. 8.0.
In general terms: In fluorescence polarisation assays a small probe gives low polarisation when free and higher when bound to something large.
Turning to `C[C@@H](O)[C@H](NC(=O)[C@@H](NC(=O)[C@@H](NC(=O)[C@H](Cc1csc2ccccc12)NC(=O)[C@H](Cc1ccc2ccccc2c1)NC(=O)[C@H](CCCNC(=N)N)NC(=O)[C@H](CCCNC(=N)N)NC(=O)[C@@H](CCCNC(=N)N)NC(=O)[C@H](CS)NC(=O)COCCOCCNC(=O)c1ccc(-c2c3ccc(=O)cc-3oc3cc(O)ccc23)c(C(=O)O)c1)C(C)(C)S)C(C)(C)C)C(=O)N[C@@H](CCCNC(=N)N)C(=O)N[C@H](C(=O)O)C(C)(C)C` [Compound 26, FAM-miniPEG-Cys-(D-Arg)-Arg-Arg-(2-Nal)-(Bta)-Pen-Tle-Thr-Arg-Tle-OH] ({X2-AEEA}-C[dR]RR[2Nal][Bta][Pen][Tle]TR[Tle]-OH), the “specificity for CAL PDZ domain relative to other PDZ domains (e.g., NHERF PDZ domains)” value is reported as “relatively low specificity”.

The same assay, now with this note: Condition C (superscript c): 50 nM labeled peptide, 2 mM TCEP; read-out: KD (printed in the IC50 (nM) column).
Usually Kd stands for the constant that tells how readily two partners part at equilibrium. Turning to `C[C@@H](O)[C@H](NC(=O)[C@@H](NC(=O)[C@@H]1CCCN1C(=O)[C@H](Cc1c[nH]c2ccccc12)NC(=O)[C@H](Cc1ccc2ccccc2c1)NC(=O)[C@H](CCCNC(=N)N)NC(=O)[C@H](CCCNC(=N)N)NC(=O)[C@H](CCCNC(=N)N)NC(=O)[C@H](CS)NC(=O)COCCOCCNC(=O)c1ccc(C2c3ccc(O)cc3Oc3cc(O)ccc32)c(C(=O)O)c1)C(C)(C)S)C(=O)N[C@@H](CCCNC(=N)N)C(=O)N[C@H](C(=O)O)C(C)(C)C` [Compound 23, FAM-miniPEG-Cys-(D-Arg)-Arg-Arg-(2-Nal)-Trp-Pro-Pen-Thr-Arg-Tle-OH] ({X3-AEEA}-CRRR[2Nal]WP[Pen]TR[Tle]-OH), the equilibrium dissociation constant (Kd) was 168 nM.
Same read-out and setting: the figure for `C[C@@H](O)[C@H](NC(=O)[C@@H](NC(=O)[C@@H](NC(=O)[C@H](Cc1csc2ccccc12)NC(=O)[C@H](Cc1ccc2ccccc2c1)NC(=O)[C@H](CCCNC(=N)N)NC(=O)[C@H](CCCNC(=N)N)NC(=O)[C@@H](CCCNC(=N)N)NC(=O)[C@H](CS)NC(=O)COCCOCCNC(=O)c1ccc(-c2c3ccc(=O)cc-3oc3cc(O)ccc23)c(C(=O)O)c1)C(C)(C)S)C(C)(C)C)C(=O)N[C@@H](CCCNC(=N)N)C(=O)N[C@H](C(=O)O)C(C)(C)C` [Compound 26, FAM-miniPEG-Cys-(D-Arg)-Arg-Arg-(2-Nal)-(Bta)-Pen-Tle-Thr-Arg-Tle-OH] ({X2-AEEA}-C[dR]RR[2Nal][Bta][Pen][Tle]TR[Tle]-OH) is 49 ± 3 nM.

The assay is the same for the next values; noted with them: FITC-labeled peptide, FP; read-out: Affinity (KD).
As to `CC(=O)N[C@@H](CS)C(=O)N[C@H](CCCNC(=N)N)C(=O)N[C@@H](CCCNC(=N)N)C(=O)N[C@@H](CCCNC(=N)N)C(=O)N[C@@H](Cc1ccc2ccccc2c1)C(=O)N[C@@H](Cc1c[nH]c2ccccc12)C(=O)N1CCC[C@H]1C(=O)N[C@H](C(=O)N[C@H](C(=O)N[C@@H](CCCNC(=N)N)C(=O)N[C@H](C(=O)O)C(C)(C)C)[C@@H](C)O)C(C)(C)S` [Compound 27, Ac-Cys-(D-Arg)-Arg-Arg-Nal-Trp-Pro-Pen-Thr-Arg-Tle-OH] (Ac-C[dR]RR[2Nal]WP[Pen]TR[Tle]-OH), the dissociation constant Kd came out at 179 nM.
For `C[C@@H](O)[C@H](NC(=O)[C@@H](NC(=O)[C@@H]1CCCN1C(=O)[C@H](Cc1c[nH]c2ccccc12)NC(=O)[C@H](Cc1ccc2ccccc2c1)NC(=O)[C@H](CCCNC(=N)N)NC(=O)[C@H](CCCNC(=N)N)NC(=O)[C@@H](CCCNC(=N)N)NC(=O)[C@H](CS)NC(=O)COCCOCCNC(=S)Nc1ccc(C2c3ccc(O)cc3Oc3cc(O)ccc32)c(C(=O)O)c1)C(C)(C)S)C(=O)N[C@@H](CCCNC(=N)N)C(=O)N[C@H](C(=O)O)C(C)(C)C` [Compound 27-FITC, FITC-miniPEG-Cys-(D-Arg)-Arg-Arg-Nal-Trp-Pro-Pen-Thr-Arg-Tle-OH] ({X1-AEEA}-C[dR]RR[2Nal]WP[Pen]TR[Tle]-OH), the Kd is 179 ± 42 nM.
With `CC(=O)N[C@@H](CS)C(=O)N[C@H](CCCNC(=N)N)C(=O)N[C@@H](CCCNC(=N)N)C(=O)N[C@@H](CCCNC(=N)N)C(=O)N[C@@H](Cc1ccc2ccccc2c1)C(=O)N[C@@H](Cc1csc2ccccc12)C(=O)N1CCC[C@H]1C(=O)N[C@H](C(=O)N[C@H](C(=O)N[C@@H](CCCNC(=N)N)C(=O)N[C@H](C(=O)O)C(C)(C)C)[C@@H](C)O)C(C)(C)S` [Compound 28, Ac-Cys-(D-Arg)-Arg-Arg-Nal-Bta-Pro-Pen-Thr-Arg-Tle-OH] (Ac-C[dR]RR[2Nal][Bta]P[Pen]TR[Tle]-OH), the dissociation constant (Kd) came to 87 nM.
On to `C[C@@H](O)[C@H](NC(=O)[C@@H](NC(=O)[C@@H]1CCCN1C(=O)[C@H](Cc1csc2ccccc12)NC(=O)[C@H](Cc1ccc2ccccc2c1)NC(=O)[C@H](CCCNC(=N)N)NC(=O)[C@H](CCCNC(=N)N)NC(=O)[C@@H](CCCNC(=N)N)NC(=O)[C@H](CS)NC(=O)COCCOCCNC(=S)Nc1ccc(C2c3ccc(O)cc3Oc3cc(O)ccc32)c(C(=O)O)c1)C(C)(C)S)C(=O)N[C@@H](CCCNC(=N)N)C(=O)N[C@H](C(=O)O)C(C)(C)C` [Compound 28-FITC, FITC-miniPEG-Cys-(D-Arg)-Arg-Arg-Nal-Bta-Pro-Pen-Thr-Arg-Tle-OH] ({X1-AEEA}-C[dR]RR[2Nal][Bta]P[Pen]TR[Tle]-OH), for which the Kd worked out at 87 ± 14 nM.

In a further assay the target is CAL PDZ binding domain (Homo sapiens, UniProt Q9HD26).
Test: not given
The note with it: CAL PDZ binding sequences not conjugated to a cCPP; cited from earlier work.
As a reminder, the Ki is a measure of affinity in units of concentration, obtained from inhibition or displacement. In the case of WQFTKL [WQFTKL], the Ki is 16 ± 1 µM.
Turning to WQFTRL [WQFTRL], the Ki was 7.6 ± 0.7 µM.
Regarding WQKTKL [WQKTKL], the Ki is 17.8 ± 0.8 µM.
For WQKTRI [WQKTRI], the Ki is 12 ± 0.9 µM.
In the case of WQKTRL [WQKTRL], the Ki is 9 ± 0.6 µM.
For the molecule WQKTRV [WQKTRV], the Ki is 16 ± 2 µM.
On to WQLTKL [WQLTKL], for which the Ki was 17 ± 1 µM.
WQRTRI [WQRTRI]: the Ki is 16 ± 2 µM.
With WQRTRL [WQRTRL], the Ki is 10.8 ± 0.7 µM.
For the molecule WQRTRV [WQRTRV], the Ki was 18 ± 1 µM.
Consider WQVTRV [WQVTRV], for which the Ki was 2.3 ± 0.2 µM.

The target in a further assay is T1, CAL PDZ domain (CALP5-His). As to the kind of experiment: FP-based competition assay, Condition B (probe FAM-[…]-OH). In kind it is binding. To be noted: Condition B (superscript b): 100 nM probe FAM-[…]-OH, 500 nM CALP5-His, 5 mM DTT. The procedure:
Serial dilutions of each competitor peptide were prepared in PBS and the incubation solution was added to each. The combined solutions were gently mixed for 1 h at RT after which 20 uL sample was pipetted into 384-well black-on-black microplates and fluorescence polarization was measured using a TECAN Infinite M1000 plate reader. Data was processed to determine IC50 using GraphPad PRISM ver. 6.0.
For orientation: IC50 means the midpoint of a concentration-inhibition curve. A high value points to weaker potency in that assay. Consider `CC(=O)N[C@@H](CS)C(=O)N[C@@H](CCCNC(=N)N)C(=O)N[C@@H](CCCNC(=N)N)C(=O)N[C@@H](CCCNC(=N)N)C(=O)N[C@@H](Cc1ccccc1)C(=O)N[C@@H](Cc1c[nH]c2ccccc12)C(=O)N[C@@H](CCC(N)=O)C(=O)N[C@@H](CS)C(=O)N[C@H](C(=O)N[C@@H](CCCNC(=N)N)C(=O)N[C@@](C)(CC(C)C)C(=O)O)[C@@H](C)O` [Compound 4], for which the IC50 is more than 20 µM.

Still in this assay, the particulars now being: Pen for cysteine at P-3.
For `CC(=O)N[C@@H](CS)C(=O)N[C@@H](CCCNC(=N)N)C(=O)N[C@@H](CCCNC(=N)N)C(=O)N[C@@H](CCCNC(=N)N)C(=O)N[C@@H](Cc1ccccc1)C(=O)N[C@@H](Cc1c[nH]c2ccccc12)C(=O)N[C@@H](CCC(N)=O)C(=O)N[C@H](C(=O)N[C@H](C(=O)N[C@@H](CCCNC(=N)N)C(=O)N[C@H](C(=O)O)C(C)(C)C)[C@@H](C)O)C(C)(C)S` [Compound 16, Ac-Cys-Arg-Arg-Arg-Phe-Trp-Gln-Pen-Thr-Arg-Tle-OH], the “improvement of CAL binding” value is approximately 2 fold.

The same assay, now with this note: Trp replaced with 1- or 2-naphthylalanine.
Consider `CC(=O)N[C@@H](CS)C(=O)N[C@@H](CCCNC(=N)N)C(=O)N[C@@H](CCCNC(=N)N)C(=O)N[C@@H](CCCNC(=N)N)C(=O)N[C@@H](Cc1ccccc1)C(=O)N[C@@H](Cc1cccc2ccccc12)C(=O)N[C@@H](CCC(N)=O)C(=O)N[C@@H](CS)C(=O)N[C@H](C(=O)N[C@@H](CCCNC(=N)N)C(=O)N[C@H](C(=O)O)C(C)(C)C)[C@@H](C)O` [Compound 14, Ac-Cys-Arg-Arg-Arg-Phe-(1-Nal)-Gln-Cys-Thr-Arg-Tle-OH] (Ac-CRRRF[1Nal]QCTR[Tle]-OH), for which the “effect of substitution at P-5 on binding” value is listed as “did not significantly affect the binding”.
`CC(=O)N[C@@H](CS)C(=O)N[C@@H](CCCNC(=N)N)C(=O)N[C@@H](CCCNC(=N)N)C(=O)N[C@@H](CCCNC(=N)N)C(=O)N[C@@H](Cc1ccccc1)C(=O)N[C@@H](Cc1ccc2ccccc2c1)C(=O)N[C@@H](CCC(N)=O)C(=O)N[C@@H](CS)C(=O)N[C@H](C(=O)N[C@@H](CCCNC(=N)N)C(=O)N[C@H](C(=O)O)C(C)(C)C)[C@@H](C)O` [Compound 15, Ac-Cys-Arg-Arg-Arg-Phe-(2-Nal)-Gln-Cys-Thr-Arg-Tle-OH] (Ac-CRRRF[2Nal]QCTR[Tle]-OH): the “effect of substitution at P-5 on binding” value is “did not significantly affect the binding”.
